52 compounds from patent publication US8808702B2, “Sulfide, sulfoxide and sulfone chalcone analogues, derivatives thereof and therapeutic uses thereof” (Temple University-of the Commonwealth System of Higher …, priority 2006, dated 2014) can be followed below.

The IC50 is the concentration that gives 50% inhibition.

Assay [1] deals with K562 (chronic myelogenous leukaemia). Nature of the assay: Effect of compounds on tumor cell lines (assay of Latham et al.), K562. To be noted: K562 cells, 96 hours after treatment, 1 μM to 100 μM; read-out: K 562 potency (IC50). In kind it is cell-based. In short, it runs like this: (§1)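 K562 or DU145 cells plated at 2.5×10^4 cells/well, treated 24 h later with compound in DMSO at 1 μM to 100 μM (0.1 μM to 100 μM for one compound). Activity judged by microscopic observation after 96 h; where needed, viable cells counted by trypan blue exclusion.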

Assay [2] has as its system DU145 (prostate cancer). Nature of the assay: Effect of compounds on tumor cell lines (assay of Latham et al.), DU145. It counts as cell-based. Particulars: DU145 cells, 96 hours after treatment, 1 μM to 100 μM; read-out: DU 145 potency (IC50). The method in brief:
as §1

For `O=C(C(=Cc1ccc(Cl)cc1)SCc1ccccc1Cl)c1ccc(Cl)cc1` [Example 130], the values for the IC50 in assay [1] and in assay [2] were 1 to 10 µM and 10 to 25 µM, respectively.
Taken in the same sequence, the figures for `CCOc1ccc(C=C(SCc2ccccc2Cl)C(=O)c2ccc(Cl)cc2)cc1OC` [Example 131] were 1 to 10 µM and 50 to 100 µM.
Taken in the same sequence, the figures for `O=C(C(=Cc1ccc(O)c([N+](=O)[O-])c1)SCc1ccccc1Cl)c1ccc(Cl)cc1` [Example 132] were 10 to 25 µM and 10 to 25 µM.
Taken in the same sequence, the figures for `COc1ccccc1C=C(SCc1ccccc1F)C(=O)c1ccc(Cl)cc1` [Example 133] were 1 to 10 µM and 10 to 25 µM.
As to `Cc1ccsc1C=C(SCc1ccccc1F)C(=O)c1ccc(Cl)cc1` [Example 134], the 50% inhibitory concentration (IC50) in assay [1] and in assay [2] was 50 to 100 µM throughout.
In the case of `O=C(C(=Cc1c(O)cc(O)cc1O)SCc1ccc(Cl)c(Cl)c1)c1ccc(Cl)cc1` [Example 136], the concentration for half-maximal inhibition (IC50) in assay [1] and in assay [2] was 25 to 50 µM in each case.
Regarding `COc1cc(OC)c(C=C(SCc2ccc(Cl)c(Cl)c2)C(=O)c2ccc(Cl)cc2)c(OC)c1` [Example 137], the IC50 in assay [1] and in assay [2] was 10 to 25 µM throughout.
`COc1ccc(OC)c(C=C(SCc2ccc(Cl)c(Cl)c2)C(=O)c2ccc(Cl)cc2)c1` [Example 138]: the half-inhibitory concentration (IC50) in assay [1] and in assay [2] was 10 to 25 µM each time.
As for `O=C(C(=Cc1ccccc1OCc1ccccc1)SCc1ccc(Cl)c(Cl)c1)c1ccc(Cl)cc1` [Example 139], the IC50 in assay [1] and in assay [2] was 10 to 25 µM each time.
On to `CN(C)c1ccc(C=C(SCc2ccc(Cl)c(Cl)c2)C(=O)c2ccc(Cl)cc2)cc1` [Example 142], for which the IC50 in assay [1] and in assay [2] was 50 to 100 µM throughout.
Consider `CCOc1ccc(C=C(SCc2ccc(Cl)c(Cl)c2)C(=O)c2ccc(Cl)cc2)cc1OC` [Example 143], for which the IC50 in assay [1] was in the range of 1 to 10 µM; in assay [2], 25 to 50 µM.
Taken in the same sequence, the figures for `O=C(C(=Cc1ccc(O)cc1)SCc1ccc(Cl)c(Cl)c1)c1ccc(Cl)cc1` [Example 144] were 1 to 10 µM and 1 to 10 µM.
As to `O=C(C(=Cc1ccc(O)cc1O)SCc1cccc(Cl)c1)c1ccc(Br)cc1` [Example 145], the half-inhibitory concentration (IC50) fell in the range of 25 to 50 µM in assay [1] and 50 to 100 µM in assay [2].
On to `O=C(C(=Cc1ccc(OCc2ccccc2)cc1)SCc1cccc(Cl)c1)c1ccc(Br)cc1` [Example 146], for which the IC50 in assay [1] and in assay [2] was 1 to 10 µM throughout.
`O=C(C(=Cc1cc(Br)c(O)c(Br)c1)SCc1ccc(Br)cc1)c1ccc(Br)cc1` [Example 147]: the values for the IC50 in assay [1] and in assay [2] were 10 to 25 µM and 1 to 10 µM, respectively.
Taken in the same sequence, the figures for `O=C(C(=Cc1cc(Cl)c(O)c(Cl)c1)SCc1ccc(Br)cc1)c1ccc(Br)cc1` [Example 148] were 10 to 25 µM and 10 to 25 µM.
For the compound `Cc1cc(C)cc(C=C(SCc2ccc(Br)cc2)C(=O)c2ccc(Cl)cc2)c1` [Example 149], the IC50 in assay [1] and in assay [2] was 10 to 25 µM each time.
In the case of `O=C(O)c1ccc(C(=O)C(=Cc2ccc(O)c(Br)c2)SCc2ccc(Br)cc2)cc1` [Example 150], the IC50 in assay [1] and in assay [2] was 25 to 50 µM throughout.
For `O=C(C(=Cc1ccc(O)c(C(=O)O)c1)SCc1ccc(Br)cc1)c1ccc(Br)cc1` [Example 151], the IC50 was 25 to 50 µM in assay [1] and 10 to 25 µM in assay [2].
Taken in the same sequence, the figures for `O=C(C(=Cc1ccc([N+](=O)[O-])c(O)c1)SCc1ccc(Br)cc1)c1c(F)c(F)c(F)c(F)c1F` [Example 152] were 1 to 10 µM and 10 to 25 µM.
For `O=C(C(=Cc1ccc([N+](=O)[O-])c(O)c1)SCc1ccc(Br)cc1)c1ccc([N+](=O)[O-])c(Cl)c1` [Example 154], the half-inhibitory concentration (IC50) in assay [1] and in assay [2] was 1 to 10 µM throughout.
In the case of `O=C(C(=Cc1ccc([N+](=O)[O-])c(O)c1)SCc1ccc(Br)cc1)c1ccc(Br)cc1` [Example 155], the IC50 in assay [1] is 1 to 10 µM; in assay [2], 10 to 25 µM.
On to `O=C(O)c1ccc(C(=O)C(=Cc2ccc([N+](=O)[O-])c(O)c2)SCc2ccc(Br)cc2)cc1` [Example 156], for which the results for the IC50 in assay [1] and in assay [2] were 1 to 10 µM and 10 to 25 µM, respectively.
Taken in the same sequence, the figures for `N#Cc1ccc(C(=O)C(=Cc2ccc([N+](=O)[O-])c(O)c2)SCc2ccc(Br)cc2)cc1` [Example 157] were 1 to 10 µM and 1 to 10 µM.
With `O=C(C(=Cc1ccc([N+](=O)[O-])c(O)c1)SCc1ccc(Br)cc1)c1ccc([N+](=O)[O-])cc1` [Example 158], the IC50 in assay [1] and in assay [2] was 1 to 10 µM in each case.
On to `O=C(/C(=C\c1ccc([N+](=O)[O-])c(O)c1)SCc1ccc(Br)cc1)c1ccc(N2CCCC2)cc1` [Example 159], for which the half-inhibitory concentration (IC50) in assay [1] and in assay [2] was over 100 µM each time.
`O=C(/C(=C\c1ccc([N+](=O)[O-])c(O)c1)SCc1ccc(Br)cc1)c1ccc(C(F)(F)F)cc1` [Example 160]: the IC50 in assay [1] and in assay [2] was 1 to 10 µM in each case.
`O=C(/C(=C\c1ccc([N+](=O)[O-])c(O)c1)SCc1ccc(Br)cc1)c1cc(Cl)ccc1O` [Example 161]: the IC50 in assay [1] and in assay [2] was 10 to 25 µM each time.
As for `CCN(CC)CCNC(=O)c1c(C)[nH]c(/C=C(/SCc2ccc(Br)cc2)C(=O)c2ccc(Br)cc2)c1C` [Example 162], the IC50 in assay [1] and in assay [2] was 1 to 10 µM throughout.
`CCN(CC)CCNC(=O)c1c(C)[nH]c(/C=C(/SCc2ccc(Br)cc2)C(=O)c2ccc(C(=O)O)cc2)c1C` [Example 163]: the IC50 in assay [1] and in assay [2] was 50 to 100 µM throughout.
Take `CN(C)c1ccc(/C=C(/SCc2ccc(Br)cc2)C(=O)c2ccc(C(=O)O)cc2)cc1` [Example 164]: the values for the half-inhibitory concentration (IC50) in assay [1] and in assay [2] were 25 to 50 µM and 50 to 100 µM, respectively.
Taken in the same sequence, the figures for `O=C(O)c1ccc(C(=O)/C(=C\c2ccc(Br)c([N+](=O)[O-])c2)SCc2ccc(Br)cc2)cc1` [Example 165] were 1 to 10 µM and 1 to 10 µM.
Taken in the same sequence, the figures for `O=C(O)c1ccc(C(=O)/C(=C\c2ccc(Br)cc2)SCc2ccc(Br)cc2)cc1` [Example 166] were 1 to 10 µM and 1 to 10 µM.
Taken in the same sequence, the figures for `Cc1[nH]c(/C=C(/SCc2ccc(Br)cc2)C(=O)c2ccc(Br)cc2)c(C)c1C(=O)O` [Example 167] were 50 to 100 µM and 50 to 100 µM.
As to `O=C(O)c1ccc(C(=O)/C(=C\c2ccc(Cl)c([N+](=O)[O-])c2)SCc2ccc(Br)cc2)cc1` [Example 168], the IC50 is at most 1 µM in assay [1] and 1 to 10 µM in assay [2].
Consider `O=C(/C(=C\c1ccc(Cl)cc1)SCc1ccc(Br)cc1)c1ccccc1Cl` [Example 169], for which the figures for the half-maximal inhibitory concentration (IC50) in assay [1] and in assay [2] were 1 to 10 µM and 25 to 50 µM, respectively.
Regarding `CCOC(=O)c1c(C)[nH]c(/C=C(/SCc2ccc(Br)cc2)C(=O)c2ccc(Br)cc2)c1C` [Example 170], the IC50 in assay [1] fell in the range of 25 to 50 µM; in assay [2] it was 50 to 100 µM.
Taken in the same sequence, the figures for `O=C(O)c1ccc(C(=O)/C(=C\c2ccc(F)c([N+](=O)[O-])c2)SCc2ccc(Br)cc2)cc1` [Example 172] were 1 to 10 µM and 1 to 10 µM.
Consider `O=C(/C(=C\c1cc(I)c(O)c(I)c1)SCc1ccc(Br)cc1)c1ccc(Br)cc1` [Example 173], for which the half-maximal inhibitory concentration (IC50) in assay [1] and in assay [2] was 1 to 10 µM in each case.
On to `COc1cc(/C=C(/SCc2ccc(Br)cc2)C(=O)c2ccc(Br)cc2)cc([N+](=O)[O-])c1O` [Example 174], for which the half-maximal inhibitory concentration (IC50) in assay [1] and in assay [2] was 25 to 50 µM throughout.
Regarding `O=C(/C(=C\c1ccc(O)c([N+](=O)[O-])c1)SCc1ccc(Br)cc1)c1c(F)c(F)c(F)c(F)c1F` [Example 175], the IC50 in assay [1] and in assay [2] was 10 to 25 µM throughout.
`O=C(/C(=C\c1ccc(O)c([N+](=O)[O-])c1)SCc1ccc(Br)cc1)c1ccc(Cl)cc1Cl` [Example 176]: the IC50 in assay [1] is 1 to 10 µM; in assay [2], 10 to 25 µM.
Taken in the same sequence, the figures for `O=C(/C(=C\c1ccc(O)c([N+](=O)[O-])c1)SCc1ccc(Br)cc1)c1ccc(O)cc1O` [Example 177] were 50 to 100 µM and over 100 µM.
Taken in the same sequence, the figures for `COc1cc(C(=O)/C(=C\c2ccc(O)c([N+](=O)[O-])c2)SCc2ccc(Br)cc2)cc(OC)c1OC` [Example 178] were 1 to 10 µM and 1 to 10 µM.
Taken in the same sequence, the figures for `O=C(/C(=C\c1ccc(O)c([N+](=O)[O-])c1)SCc1ccc(Br)cc1)c1ccc([N+](=O)[O-])c(Cl)c1` [Example 179] were 1 to 10 µM and 1 to 10 µM.
For the compound `O=C(O)c1ccc(C(=O)/C(=C\c2ccc(O)c([N+](=O)[O-])c2)SCc2ccc(Br)cc2)cc1` [Example 181], the IC50 in assay [1] and in assay [2] was 50 to 100 µM each time.
`N#Cc1ccc(C(=O)/C(=C\c2ccc(O)c([N+](=O)[O-])c2)SCc2ccc(Br)cc2)cc1` [Example 182]: the half-maximal inhibitory concentration (IC50) in assay [1] and in assay [2] was 10 to 25 µM throughout.
Turning to `COc1ccc(C(=O)/C(=C\c2ccc(O)c([N+](=O)[O-])c2)SCc2ccc(Br)cc2)cc1` [Example 183], the concentration for half-maximal inhibition (IC50) in assay [1] and in assay [2] was 10 to 25 µM in each case.
For `O=C(/C(=C\c1ccc(O)c([N+](=O)[O-])c1)SCc1ccc(Br)cc1)c1ccc([N+](=O)[O-])cc1` [Example 184], the concentration for half-maximal inhibition (IC50) in assay [1] and in assay [2] was 10 to 25 µM each time.
For `O=C(/C(=C\c1ccc(O)c([N+](=O)[O-])c1)SCc1ccc(Br)cc1)c1ccc(N2CCCC2)cc1` [Example 185], the IC50 in assay [1] and in assay [2] was over 100 µM in each case.
As for `O=C(/C(=C\c1ccc(O)c([N+](=O)[O-])c1)SCc1ccc(Br)cc1)c1ccc(C(F)(F)F)cc1` [Example 186], the half-inhibitory concentration (IC50) in assay [1] lay within 1 to 10 µM; in assay [2] it was 10 to 25 µM.
Consider `O=C(/C(=C\c1ccc(O)c([N+](=O)[O-])c1)SCc1ccc(Br)cc1)c1cc(Cl)ccc1O` [Example 187], for which the half-maximal inhibitory concentration (IC50) in assay [1] lay within 10 to 25 µM; in assay [2], 25 to 50 µM.
